Eight compounds from US20190008870A1, “COMPOSITIONS AND METHODS FOR LIPID METABOLISM DISORDER” (JANSFAT BIOTECHNOLOGY CO., LTD., priority 2016, published 2019) can be followed below.

The test system of assay [1] is ROCK II. Kind of assay: ROCK II expression in HepG2 cells. Type of assay: cell-based. How it is done:
(§1) The HepG2 hepatoma cell line was purchased from the American Type Culture Collection (ATCC, Manassas, Va., U.S.A.). Cells were cultured in Dulbecco's Modified Eagle's Medium (DMEM). […] Then the targeted drugs solution was incubated with the cells for 24 hours, followed by protein extraction. […] HepG2 cells were treated with various concentrations of targeted drugs for 24 hours. Reactions were terminated by washing twice with cold PBS, and the cells were then harvested. Proteins in the whole-cell lysate were homogenized in an ice-cold lysis buffer and a protease inhibitor (Sigma-Aldrich, St. Louis, Mo., U.S.A.). The homogenate was centrifuged at 90,000×g for 15 minutes at 4° C., and supernatant was recovered as the total cellular protein. Cytosolic and membrane fractions of HepG2 cells were prepared using a CNM (Cytosol Nuclear Membrane) compartmental protein extraction kit (BioChain Institute Inc., Hayward, Calif., U.S.A.) according to the manufacturer's instructions. All of the fractionated protein solutions were stored at -80° C. until analysis. To measure the expression levels of proteins by drugs, the total cell protein was extracted after incubation with treatments for 24 hours and then Western blotting analysis was performed as described previously.

A further assay has as its system PPARγ. Description: PPARγ expression in HepG2 cells. Type of assay: cell-based. To be noted: HepG2 cells; for PPARγ: Control 100. How it is done: as §1, with “−80°” for “-80°”
The subject of another assay is HMG CoA reductase. Kind of assay: HMG CoA reductase expression in HepG2 cells (Western blotting). Format: cell-based. The settings on record: for HMGR (%): CTL 100. How it is done:
The HepG2 hepatoma cell line was purchased from the American Type Culture Collection (ATCC, Manassas, Va., U.S.A.). Cells were cultured in Dulbecco's Modified Eagle's Medium (DMEM). The culture media was supplemented with 5% heat-inactivated FBS, penicillin (100 U/mL) and streptomycin (100 μg/mL). Cells were grown in a humidified atmosphere containing 5% CO2 at 37° C., in which the oxygen tension in the incubator was held at 140 mmHg (20% O2, v/v; normoxic conditions). […] Then the targeted drugs solution was incubated with the cells for 24 hours, followed by protein extraction. The targeted drugs were added to the […].
HepG2 cells were treated with various concentrations of targeted drugs for 24 hours. Reactions were terminated by washing twice with cold PBS, and the cells were then harvested. Proteins in the whole-cell lysate were homogenized in an ice-cold lysis buffer and a protease inhibitor (Sigma-Aldrich, St. Louis, Mo., U.S.A.). The homogenate was centrifuged at 90,000×g for 15 minutes at 4° C., and supernatant was recovered as the total cellular protein. Cytosolic and membrane fractions of HepG2 cells were prepared using a CNM (Cytosol Nuclear Membrane) compartmental protein extraction kit (BioChain Institute Inc., Hayward, Calif., U.S.A.) according to the manufacturer's instructions. All of the fractionated protein solutions were stored at −80° C. until analysis. To measure the expression levels of proteins by drugs, the total cell protein was extracted after incubation with treatments for 24 hours and then Western blotting analysis was performed as described previously.

The nature of assay [2]: Body weight and food intake of mice fed with HFD. The settings on record: HFD mice, 5 mg/kg p.o. Type of assay: in vivo. On the procedure:
In the experiment, C57BL/6J male mice (21-22 g), after fasting, were fed an HFD as a model of hyperlipidemia for 8 weeks. During the 2 month experiments, mice fasted for one night before the experiment was changed from a standard diet (STD) to an HFD and then the mice were randomly divided into 13 groups, including a protection group, 2 control and 10 treatment groups. Six mice were used in each group. […] Liver from the protection group supplemented with KMUP-1 HCl (1 mg/kg/day) were used to determine the HMG CoA reductase expression. Each group of mice had free access to drinking water from week 1 to week 14. Tap water was used to normalize mineral nutrition.
Within 2 months, the 3 day food intake average for each animal was measured. The weight gain and plasma lipid levels of each group were determined and compared to the non-treatment control group. Mouse blood was collected during the daytime by cardiac puncture followed by centrifugation at 90×g (Benchtop Centrifuge, U.S.A.) to separate the serum, and frozen at −80° C., for biochemical analysis using a Hitachi Clinical Analyzer 7070 (Hitachi High-Technologies Co. Tokyo, Japan). Agents used in the assays were obtained from Merck & Co. (Kenilworth, N.J., U.S.A.). Triglyceride (TG), total cholesterol, HDL cholesterol and LDL cholesterol in mouse serum were measured by methods used in the clinic. To measure the hepatic Triglyceride, isolated liver were cut into small chips.

The next assay concerns mice fed with HFD. Kind of assay: Serum and liver lipid levels of mice fed with HFD. Type of assay: in vivo. The settings on record: for HDL chol. / LDL chol. / TG / Tot. chol.: Dose 2.5 mg/kg (Table 2). On the procedure: During the 2 month experiments, mice fasted for one night before the experiment was changed from a standard diet (STD) to an HFD and then the mice were randomly divided into 13 groups, including a protection group, 2 control and 10 treatment groups. Six mice were used in each group. […] Liver from the protection group supplemented with KMUP-1 HCl (1 mg/kg/day) were used to determine the HMG CoA reductase expression. Each group of mice had free access to drinking water from week 1 to week 14. Tap water was used to normalize mineral nutrition.
Within 2 months, the 3 day food intake average for each animal was measured. The weight gain and plasma lipid levels of each group were determined and compared to the non-treatment control group. […] Agents used in the assays were obtained from Merck & Co. (Kenilworth, N.J., U.S.A.). Triglyceride (TG), total cholesterol, HDL cholesterol and LDL cholesterol in mouse serum were measured by methods used in the clinic. To measure the hepatic Triglyceride, isolated liver were cut into small chips.

Another assay concerns ABCA1. Kind of assay: ABCA1 expression in HepG2 cells. To be noted: HepG2 cells, 10^−5 M, 24 hours; Control 100, Vehicle 110. Format: cell-based. On the procedure: as §1, with “−80°” for “-80°”
For assay [3], the system named is ROCK II. Description: Expression of ROCK II (Table 12). To be noted: Control group 100 (%).
In the next assay the test system is PDE-5A. Description: Expression of PDE-5A (Table 12). To be noted: Control group 100 (%).
Another assay deals with eNOS. Kind of assay: Expression of eNOS (Table 12). To be noted: Control group 100 (%).

Several values for one entry are separate records, joined by “and”; a condition that tells them apart may be missing. Equal entries are not always repeated.

`CC(C)=CCC/C(C)=C/CC/C(C)=C/COP(=O)(O)OP(=O)(O)O` [FPP, Farnesyl pyrophosphate, reference compound] had an ROCKII in the assay with ROCK II [1] (FPP (10 μM) alone, Control 100) of 118%. The compound also returned a PPARγ in the assay on PPARγ (FPP (10 μM) alone) of 64%.
As to `CC(C)=CCC/C(C)=C/CC/C(C)=C/CC/C(C)=C/COP(=O)(O)OP(=O)(O)O` [GGPP, Geranylgeranyl pyrophosphate, reference compound], the ROCKII in the assay on ROCK II [1] (GGPP (10 μM) alone, Control 100) is 150% and 220%. The compound also yielded a PPARγ with PPARγ (GGPP (10 μM) alone) of 50%.
Take `CC(O)(CCO)CC(=O)O` (stereo not drawn) [Mevalonate]: the “HMGR (%)” value in the assay on HMG CoA reductase (Mevalonate 20 (μm)) is recorded as 110%; in the assay on HMG CoA reductase (Mevalonate 40 (μm)) it was 95%; in the assay on HMG CoA reductase (Mevalonate 60 (μm)), 55%; in the assay on HMG CoA reductase (Mevalonate 80 (μm)), 48%; in the assay with HMG CoA reductase (Mevalonate 100 (μm)), 13%. Moreover, in the assay with HMG CoA reductase (Mevalonate (100 μM) alone, Control 100), the “HMG CoA expression” value came to 20%.
In the case of `Nc1nc2c(nc(Sc3ccc(Cl)cc3)n2[C@@H]2O[C@@H]3CO[P@@](=O)(S)O[C@H]3[C@H]2O)c(=O)[nH]1` [Rp-8-pCPT-cGMPS, 8-(p-chloro-phenylthio)guanosine-3,5-monophosphorothioate, reference compound], the “ROCK II expression” value with ROCK II [1] (Rp-8-pCPT-cGMPS 10 μM alone, Control 100) came to 320.
For the compound `CCCc1nn(C)c2c(=O)nc(-c3cc(S(=O)(=O)N4CCN(C)CC4)ccc3OCC)[nH]c12` [SIDAF, 5-[2-ethoxy-5-(4-methylpiperazin-1-yl)-sulphonylphenyl]-1-methyl-3-propyl-4H-pyrazolo[4,3-d]pyrimidin-7-one, reference compound], the “final BW (Body weight)” value in assay [2] is 23.9 ± 0.9 g. For the same compound, in the assay on mice fed with HFD (5 mg/kg p.o.), the HDL cholesterol was determined as 103.2 ± 2.5 mg/dL, the LDL cholesterol amounted to 15.3 ± 1.3 mg/dL, the “TG in serum (Triacylglycerol)” value was 82.7 ± 6.3 mg/dL and the TG of liver is recorded as 34.5 ± 2.** mg/dl. The “Tot. chol. (total cholesterol)” value in the assay on mice fed with HFD (5 mg/kg p.o.) is 133.7 ± 4.3 mg/dL.
Turning to `C[C@@H](N)[C@H]1CC[C@H](C(=O)Nc2ccncc2)CC1` [Y27632, reference compound], the “ROCK II expression” value in the assay with ROCK II [1] (10^−5 M, 24 hours, Control 100, Vehicle 88) is 52. The ABCA1 expression with ABCA1 is given as 225. Further, the PPARγ expression with PPARγ (10^−5 M, 24 hours, Control 100, Vehicle 260) is 550.
For the compound KMUP-1-DL-ascorbic acid [KMUP-1-VC], in the assay with ROCK II [3], the “ROCK II expression” value turned out to be 40.8 ± 3.7%. The same compound registered a PDE-5A expression with PDE-5A of 68.8 ± 5.3%. In addition, in the assay with mice fed with HFD, the HDL chol. was found to be 97.3 ± 1.6 mg/dL, the LDL chol. was 16.5 ± 0.9 mg/dL, the TG came out at 78.2 ± 3.6 mg/dL and the Tot. chol. came out at 129.4 ± 1.4 mg/dL.
With “KMUP-1-sodium carboxyl methylcellulose [KMUP-1-CMC]”, the “ROCK II expression” value in the assay with ROCK II [3] worked out at 38.6 ± 2.7%. Besides, the PDE-5A expression in the assay with PDE-5A was 58.7 ± 3.5%. In the assay on mice fed with HFD, this compound gave an HDL chol. of 108.4 ± 1.3 mg/dL, an LDL chol. of 16.4 ± 1.7 mg/dL, a TG of 83.2 ± 5.3 mg/dL and a Tot. chol. of 129.7 ± 1.6 mg/dL. Also, the eNOS expression with eNOS turned out to be 152.14 ± 6.3%.
